From PMC9939323 (Acta Pharmaceutica Sinica. B, 2022)

Legend:
[1] = target: neuraminidase (NA) of H1N1 (A/PR/8/34) (Influenza A virus (A/Puerto Rico/8/1934(H1N1)), UniProt P03468); assay: NA-Fluor fluorescence assay, whole virus; type: biochemical; conditions: NA-Fluor substrate, […] °C, […] min preincubation, […] h
[2] = target: neuraminidase (NA) of H1N1 (A/PR/8/34) (Influenza A virus (A/Puerto Rico/8/1934(H1N1)), UniProt P03468); assay: NA-Fluor fluorescence assay, whole virus; type: biochemical; conditions: read-out: % inhibition at 10 μmol/L

Sequence of neuraminidase (NA) of H1N1 (A/PR/8/34) (Influenza A virus (A/Puerto Rico/8/1934(H1N1)), UniProt P03468) (P03468 whole entry): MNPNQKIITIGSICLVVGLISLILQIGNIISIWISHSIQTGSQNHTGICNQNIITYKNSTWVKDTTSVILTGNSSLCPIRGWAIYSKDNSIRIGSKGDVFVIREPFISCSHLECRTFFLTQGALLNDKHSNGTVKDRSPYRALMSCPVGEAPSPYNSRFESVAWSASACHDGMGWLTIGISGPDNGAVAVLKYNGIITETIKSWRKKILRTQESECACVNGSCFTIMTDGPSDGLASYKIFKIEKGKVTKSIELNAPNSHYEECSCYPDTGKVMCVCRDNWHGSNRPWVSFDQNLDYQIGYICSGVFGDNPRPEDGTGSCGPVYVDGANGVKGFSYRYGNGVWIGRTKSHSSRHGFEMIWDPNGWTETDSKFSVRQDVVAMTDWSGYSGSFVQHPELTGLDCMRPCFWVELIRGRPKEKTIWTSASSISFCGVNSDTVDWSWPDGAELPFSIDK

SMILES	% inhibition at 10 μmol/L [1]	inhibition at 10 µM [2] [%]
Oc1ccc(/C=C/c2cc(O)cc3c2[C@@H](c2cc(O)cc(O)c2)[C@H](c2ccc(O)cc2)O3)cc1 [ε-viniferin]	Ampelopsin A and ε-viniferin exhibited weak inhibitory effects	–
Oc1ccc([C@H]2c3c(O)cc(O)cc3[C@H]3c4c(cc(O)cc4[C@@H]2c2cc(/C=C/c4cc(O)cc5c4[C@H](c4cc(O)cc(O)c4)[C@@H](c4ccc(O)cc4)O5)ccc2O)O[C@@H]3c2ccc(O)cc2)cc1 [vitisin A]	–	43
